In patent publication US7947741B2, “Use and administration of bacterial efflux pump inhibitors” (Mpex Pharmaceuticals, Inc., priority 2004, dated 2011):

Key:
[1] = tested on: P. aeruginosa PAM1482 (MexCD-OprJ; gyrA (Asp87Tyr)); assay: microbe, parasite or virus in culture; assay type: cell-based, Pseudomonas aeruginosa; conditions: PAM1482
Text: (§1) In addition to increased efflux, resistance to fluoroquinolones may be due to target mutations (gyrase and topoisimerase IV) or due to combination of these two resistance mechanisms in a single bacterial cell.

[2] = tested on: P. aeruginosa PAM1570 (MexEF-OprN; gyrA (Thr83Ile)); assay: microbe, parasite or virus in culture; assay type: cell-based, Pseudomonas aeruginosa; conditions: PAM1570
Text: as §1

[3] = tested on: P. aeruginosa PAM1569 (MexCD-OprJ; gyrA (Thr83Ile)); assay: microbe, parasite or virus in culture; assay type: cell-based, Pseudomonas aeruginosa; conditions: PAM1569
Text: as §1

[4] = tested on: P. aeruginosa PAM1032 (MexAB-OprM); assay: microbe, parasite or virus in culture; assay type: cell-based, Pseudomonas aeruginosa; conditions: PAM1032
Text: as §1

[5] = tested on: P. aeruginosa PAM1020 (pump status none; target mutation none); assay: microbe, parasite or virus in culture; assay type: cell-based, Pseudomonas aeruginosa; conditions: PAM1020
Text: as §1

[6] = tested on: P. aeruginosa PAM1491 (MexEF-OprN; gyrA (Asp87Tyr)); assay: microbe, parasite or virus in culture; assay type: cell-based, Pseudomonas aeruginosa; conditions: PAM1491
Text: as §1

[7] = tested on: P. aeruginosa PAM1034 (MexEF-OprN); assay: microbe, parasite or virus in culture; assay type: cell-based, Pseudomonas aeruginosa; conditions: PAM1034
Text: as §1

[8] = tested on: P. aeruginosa PAM1033 (MexCD-OprJ); assay: microbe, parasite or virus in culture; assay type: cell-based, Pseudomonas aeruginosa; conditions: PAM1033
Text: as §1

[9] = tested on: P. aeruginosa PAM1548 (pump status none; gyrA (Thr83Ile)); assay: microbe, parasite or virus in culture; assay type: cell-based, Pseudomonas aeruginosa; conditions: PAM1548
Text: as §1

[10] = isethionate salt; cited from earlier work
[11] = tested on: P. aeruginosa PAM1020 (wt, basal level of MexAB-OprM); assay: Levofloxacin potentiation checkerboard assay (broth microdilution); assay type: cell-based, Pseudomonas aeruginosa
Experimental: (§2) Stock solutions were further diluted, according to the needs of a particular assay, in Mueller Hinton Broth (MHB). Stock solution was stored at −80° C.
(§3) The checkerboard assay was performed in microtiter plates. […] The result of these manipulations is that each well of the microtiter plate contains a unique combination of concentrations of the two agents. The assay was performed in MHB with a final bacterial inoculum of 5×10^5 CFU/ml (from an early-log phase culture). Microtiter plates were incubated during 20 h at 35° C. and were read using a microtiterplate reader (Molecular Devices) at 650 nm as well as visual observation using a microtiter plate reading mirror.
(§4) The test organisms used was PAM1020, which is a wild type strain of P. aeruginosa expressing the basal level of MexAB-OprM, as well as PAM1723, PAM1738, and PAM1753, overexpressing the MexAB-OprM, MexCD-OprJ, and MexEF-OprN pump, respectively.

[12] = tested on: P. aeruginosa PAM1753 (nfxC, overexpressing MexEF-OprN); assay: as above; assay type: cell-based, Pseudomonas aeruginosa; conditions: for Levofloxacin MIC in the presence of inhibitor: PAM1753
Experimental: as §2, §3, §4

[13] = tested on: P. aeruginosa PAM2282 (MexAB-OprM, MexEF-OprN); assay: microbe, parasite or virus in culture; assay type: cell-based, Pseudomonas aeruginosa; conditions: PAM2282
Experimental: (§5) A set of strains that simultaneously over-expressed pairs or triplicates of pumps, e.g. PAM2302 and PAM2303 was tested. Simultaneous over-expression of efflux pumps has been recently detected in clinical strains.

[14] = tested on: P. aeruginosa PAM2302 (MexAB-OprM, MexCD-OprJ, MexEF-OprN); assay: microbe, parasite or virus in culture; assay type: cell-based, Pseudomonas aeruginosa; conditions: PAM2302
Experimental: as §5

[15] = tested on: P. aeruginosa PAM2466 (MexAB-OprM, MexXY-OprM); assay: microbe, parasite or virus in culture; assay type: cell-based, Pseudomonas aeruginosa; conditions: PAM2466
Experimental: as §5

[16] = tested on: P. aeruginosa PAM2281 (MexAB-OprM, MexEF-OprN); assay: microbe, parasite or virus in culture; assay type: cell-based, Pseudomonas aeruginosa; conditions: PAM2281
Experimental: as §5

[17] = tested on: P. aeruginosa PAM1438 (MexAB-OprM, MexCD-OprJ); assay: microbe, parasite or virus in culture; assay type: cell-based, Pseudomonas aeruginosa; conditions: PAM1438
Experimental: as §5

[18] = tested on: P. aeruginosa PAM1738 (nfxB, overexpressing MexCD-OprJ); assay: microbe, parasite or virus in culture; assay type: cell-based, Pseudomonas aeruginosa
Experimental: as §2, §3, §4

[19] = target: MexAB-OprM-mediated efflux of Leu-Nap, PAM1723 cells (Pseudomonas aeruginosa, UniProt P52002); assay: Leu-Nap accumulation assay; assay type: cell-based
[20] = Pseudomonas aeruginosa, read-out: MIC* (MIC for the efflux pump inhibitor)

MexAB-OprM-mediated efflux of Leu-Nap, PAM1723 cells, sequence (Q51487 18-485): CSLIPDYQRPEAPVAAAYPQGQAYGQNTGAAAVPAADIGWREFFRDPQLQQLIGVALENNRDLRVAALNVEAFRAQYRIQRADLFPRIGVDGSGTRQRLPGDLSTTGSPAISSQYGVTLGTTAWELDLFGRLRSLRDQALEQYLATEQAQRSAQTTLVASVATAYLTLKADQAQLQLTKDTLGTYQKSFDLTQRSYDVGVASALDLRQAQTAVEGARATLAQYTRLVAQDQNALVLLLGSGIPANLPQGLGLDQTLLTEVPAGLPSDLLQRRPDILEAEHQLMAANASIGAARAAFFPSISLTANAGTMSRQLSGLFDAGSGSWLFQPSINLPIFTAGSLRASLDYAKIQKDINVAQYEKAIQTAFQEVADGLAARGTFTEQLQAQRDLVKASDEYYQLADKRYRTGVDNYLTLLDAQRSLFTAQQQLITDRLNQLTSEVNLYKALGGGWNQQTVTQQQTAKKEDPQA
MexAB-OprM-mediated efflux of Leu-Nap, PAM1723 cells, sequence (P52002 whole entry): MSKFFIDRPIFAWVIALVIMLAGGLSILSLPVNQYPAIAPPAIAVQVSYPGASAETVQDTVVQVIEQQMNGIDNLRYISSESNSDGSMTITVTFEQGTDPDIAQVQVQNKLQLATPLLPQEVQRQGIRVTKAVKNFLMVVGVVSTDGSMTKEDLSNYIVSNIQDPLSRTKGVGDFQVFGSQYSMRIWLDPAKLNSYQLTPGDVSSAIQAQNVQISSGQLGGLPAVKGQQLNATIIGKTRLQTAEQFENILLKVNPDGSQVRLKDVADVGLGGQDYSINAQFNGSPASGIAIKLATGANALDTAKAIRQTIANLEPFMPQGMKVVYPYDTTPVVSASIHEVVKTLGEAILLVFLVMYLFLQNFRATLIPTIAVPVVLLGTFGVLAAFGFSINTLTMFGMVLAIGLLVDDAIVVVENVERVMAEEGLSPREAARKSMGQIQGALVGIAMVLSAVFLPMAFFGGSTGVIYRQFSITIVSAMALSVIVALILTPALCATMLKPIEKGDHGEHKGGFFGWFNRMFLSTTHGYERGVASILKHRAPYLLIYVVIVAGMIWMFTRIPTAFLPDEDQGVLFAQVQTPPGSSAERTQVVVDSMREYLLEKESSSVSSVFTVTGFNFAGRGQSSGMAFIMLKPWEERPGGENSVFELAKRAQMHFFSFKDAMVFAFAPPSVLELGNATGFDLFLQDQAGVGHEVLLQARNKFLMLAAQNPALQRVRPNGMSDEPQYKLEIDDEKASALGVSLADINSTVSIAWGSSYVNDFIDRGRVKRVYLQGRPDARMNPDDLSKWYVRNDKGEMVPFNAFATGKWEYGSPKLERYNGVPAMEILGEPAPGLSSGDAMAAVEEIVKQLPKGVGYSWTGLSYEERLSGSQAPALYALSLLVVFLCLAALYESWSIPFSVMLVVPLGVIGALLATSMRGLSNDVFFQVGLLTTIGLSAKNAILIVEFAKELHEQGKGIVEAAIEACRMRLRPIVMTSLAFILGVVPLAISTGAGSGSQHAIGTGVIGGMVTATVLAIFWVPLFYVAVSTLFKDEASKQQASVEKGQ
MexAB-OprM-mediated efflux of Leu-Nap, PAM1723 cells, sequence (P52477 24-383, further chain): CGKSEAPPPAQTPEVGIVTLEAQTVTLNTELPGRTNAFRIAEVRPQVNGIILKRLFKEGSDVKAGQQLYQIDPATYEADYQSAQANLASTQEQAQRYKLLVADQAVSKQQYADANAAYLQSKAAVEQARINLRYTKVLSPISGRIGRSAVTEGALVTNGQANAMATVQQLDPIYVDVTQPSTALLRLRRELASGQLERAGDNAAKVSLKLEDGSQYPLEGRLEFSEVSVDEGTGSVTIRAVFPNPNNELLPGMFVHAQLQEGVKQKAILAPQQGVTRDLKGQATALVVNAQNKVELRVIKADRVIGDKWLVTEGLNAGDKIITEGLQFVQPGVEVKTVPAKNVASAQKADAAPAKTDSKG

N=C(N)c1ccc(OCCCCCOc2ccc(C(=N)N)cc2)cc1 [Pentamidine, pentamidine]
Ciprofloxacin MIC w/pentamidine at 20 μg/ml [1]: 2 µg/mL | Levofloxacin MIC w/pentamidine at 20 μg/ml [1]: 1 µg/mL | Ciprofloxacin MIC w/pentamidine at 20 μg/ml [2]: 2 µg/mL | Levofloxacin MIC w/pentamidine at 20 μg/ml [2]: 2 µg/mL | Ciprofloxacin MIC w/pentamidine at 20 μg/ml [3]: 4 µg/mL | Levofloxacin MIC w/pentamidine at 20 μg/ml [3]: 4 µg/mL | Ciprofloxacin MIC w/pentamidine at 20 μg/ml [4]: 0.06 µg/mL | Levofloxacin MIC w/pentamidine at 20 μg/ml [4]: 0.125 µg/mL | Ciprofloxacin MIC w/pentamidine at 20 μg/ml [5]: 0.015 µg/mL | Levofloxacin MIC w/pentamidine at 20 μg/ml [5]: 0.03 µg/mL | Ciprofloxacin MIC w/pentamidine at 20 μg/ml [6]: 1 µg/mL | Levofloxacin MIC w/pentamidine at 20 μg/ml [6]: 2 µg/mL | Ciprofloxacin MIC w/pentamidine at 20 μg/ml [7]: 0.06 µg/mL | Levofloxacin MIC w/pentamidine at 20 μg/ml [7]: 0.125 µg/mL | Ciprofloxacin MIC w/pentamidine at 20 μg/ml [8]: 0.25 µg/mL | Levofloxacin MIC w/pentamidine at 20 μg/ml [8]: 0.25 µg/mL | Ciprofloxacin MIC w/pentamidine at 20 μg/ml [9]: 0.5 µg/mL | Levofloxacin MIC w/pentamidine at 20 μg/ml [9]: 0.25 µg/mL | solubility [10]: soluble in water and glycerin and insoluble in ether, acetone, and chloroform | decrease of levofloxacin MIC ([11]; PAM1020 (wild type), pentamidine at 20 μg/ml): 8 fold | Levofloxacin MIC in the presence of inhibitor ([11]; PAM1020, inhibitor 1.25 μg/ml): 0.25 µg/mL | Levofloxacin MIC in the presence of inhibitor ([11]; PAM1020, inhibitor 2.5 μg/ml): 0.25 µg/mL | Levofloxacin MIC in the presence of inhibitor ([11]; PAM1020, inhibitor 5 μg/ml): 0.125 µg/mL | Levofloxacin MIC in the presence of inhibitor ([11]; PAM1020, inhibitor 10 μg/ml): 0.06 µg/mL | Levofloxacin MIC in the presence of inhibitor ([11]; PAM1020, inhibitor 20 μg/ml): 0.03 µg/mL | Levofloxacin MIC in the presence of inhibitor ([11]; PAM1020, inhibitor 40 μg/ml): 0.015 µg/mL | MIC ([11]; Pseudomonas aeruginosa, PAM1020, inhibitor alone, read-out: MIC* (MIC for the efflux pump inhibitor)): 80 µg/mL | Levofloxacin MIC in the presence of inhibitor ([12]; inhibitor 1.25 μg/ml): 2 µg/mL | Levofloxacin MIC in the presence of inhibitor ([12]; inhibitor 2.5 μg/ml): 2 µg/mL | Levofloxacin MIC in the presence of inhibitor ([12]; inhibitor 5 μg/ml): 2 µg/mL | Levofloxacin MIC in the presence of inhibitor ([12]; inhibitor 10 μg/ml): 1 µg/mL | Levofloxacin MIC in the presence of inhibitor ([12]; inhibitor 20 μg/ml): 0.25 µg/mL | MIC [12, 20]: 40 µg/mL | Ciprofloxacin MIC w/pentamidine at 20 μg/ml [13]: 0.125 µg/mL | Levofloxacin MIC w/pentamidine at 20 μg/ml [13]: 0.25 µg/mL | Ciprofloxacin MIC w/pentamidine at 20 μg/ml [14]: 0.25 µg/mL | Levofloxacin MIC w/pentamidine at 20 μg/ml [14]: 0.25 µg/mL | Ciprofloxacin MIC w/pentamidine at 20 μg/ml [15]: 0.06 µg/mL | Levofloxacin MIC w/pentamidine at 20 μg/ml [15]: 0.125 µg/mL | Ciprofloxacin MIC w/pentamidine at 20 μg/ml [16]: 0.25 µg/mL | Levofloxacin MIC w/pentamidine at 20 μg/ml [16]: 0.25 µg/mL | Ciprofloxacin MIC w/pentamidine at 20 μg/ml [17]: 0.25 µg/mL | Levofloxacin MIC w/pentamidine at 20 μg/ml [17]: 0.25 µg/mL | Levofloxacin MIC in the presence of inhibitor ([18]; PAM1738, inhibitor 1.25 μg/ml): 0.5 µg/mL | Levofloxacin MIC in the presence of inhibitor ([18]; PAM1738, inhibitor 2.5 μg/ml): 0.25 µg/mL | Levofloxacin MIC in the presence of inhibitor ([18]; PAM1738, inhibitor 5 μg/ml): 0.25 µg/mL | Levofloxacin MIC in the presence of inhibitor ([18]; PAM1738, inhibitor 10 μg/ml): 0.25 µg/mL | Levofloxacin MIC in the presence of inhibitor ([18]; PAM1738, inhibitor 20 μg/ml): 0.125 µg/mL | Levofloxacin MIC in the presence of inhibitor ([18]; PAM1738, inhibitor 40 μg/ml): 0.03 µg/mL | Levofloxacin MIC in the presence of inhibitor ([18]; PAM1738, inhibitor 80 μg/ml): 0.015 µg/mL | decrease of levofloxacin MIC ([18]; PAM1738, pentamidine at 20 μg/ml): 4 fold | MIC [18, 20]: > 80 µg/mL | inhibitor concentration at which rate of Leu-Nap uptake in PAM1723 and PAM1626 is the same (complete inhibition of efflux) ([19]; Leu-Nap 100 μg/ml): 40 µg/mL | mode of inhibition ([19]; dependence on Leu-Nap substrate concentration): uncompetitive inhibition | pentamidine required for complete inhibition of the pump ([19]; external Leu-Nap 60 μg/ml, fluorescence change in 30 min): 80 µg/mL | pentamidine required to completely inhibit MexAB-OprM-mediated efflux ([19]; external Leu-Nap 120 μg/ml, fluorescence change in 30 min): 20 µg/mL
